In US11179391B2, “Compound with kinase inhibitory activity and preparation method and use thereof” (priority 2017, dated 2021):

What was measured:
Format in all cases: biochemical
[1] = target: CDK4/CycD3 (Homo sapiens, UniProt P11802); test: Determination of CDK activity (Caliper mobility shift, FAM-P8 peptide): CDK4; settings: CDK4/CycD3; read-out: CDK4 enzymatic inhibitory activity (IC50)
Method: (§1) In vitro, CDK (CDK4, CDK6, CDK1, CDK2, CDK7, and CDK9) kinase activity was tested by the following method.
(§2) CDK and raw materials used here: CDK4/CycD3 (Carna, Cat. No 04-105, Lot. No 10CBS-0429 C, GST-CDK4(1-303end)/GST-CycD3(1-292end)); CDK6/cycD3 (Carna, Cat. No 04-107, Lot. No 09CBS-0622K, GST-CDK6(1-326(end))); CDK1/CyclinB (Millipore, Cat. 14-450k, Lot. No 25729U, His-CDK1+GST-cyclinB); CDK2/CycA2 (Carna, Cat. No 04-103, Lot. No 06CBS-3024, GST-CDK2 (1-298(end))); CDK7/CyclinH/MAT1 (Millipore, Cat. No 14-476M, Lot. No WAB0365-A, His-CDK7+GST-MAT1+cyclinH); CDK9/cyclinTl (Millipore, Cat. No 14-685K, Lot. No. 2476163-A, His-CDK9+cyclinTl); Peptide FAM-P8 (GL Biochem, Cat. No. 112396, Lot. No. P100804-XZ112396); ATP (Sigma, Cat. No. A7699-1G, CAS No. 987-65-5); DMSO (Sigma, Cat. No. D2650, Lot. No. 474382); EDTA (Sigma, Cat. No. E5134, CAS No. 60-00-4); 96-well plate (Corning, Cat. No. 3365, Lot. No. 22008026); 384-well plate (Corning, Cat. No. 3573, Lot. No. 12608008); Staurosporine (Sigma, Cat. No. S4400-1MG, Lot. No. 046K4080).
(§3) 1. Prepared 1× Kinase Buffer and Stop Buffer for the Test
2) 1× Kinase Base Buffer (CDK4).
(§4) 1) Diluted the compound to 50 times of the maximum concentration with 100% DMSO. For example, if the desired maximum inhibitory concentration is 10 μM, then a DMSO solution of 500 μM concentration is required.
(§5) 2) Transferred the compound to a 96-well plate and serially diluted the compound from a 100% DMSO solution at a ratio of 30 μm to 60 μm for a total of 10 concentrations gradients. 3) Transferred 100 μm of 100% DMSO to two empty wells as a no compound control and a no enzyme control.
(§6) 4) Prepared intermediate plate and transferred the compound of 10 μm concentration from the original plate to the intermediate plate, and then 90 μm of 1× kinase buffer was added and mixed by shaking for 10 min.
(§7) 4) Preparing intermediate plate and transferred the compound of […] concentration from the original plate to the intermediate plate, and then 90 μm of 1× kinase buffer was added and mixed by shaking for 10 min.
(§8) 1) Transferred 5 μm of each compound from the 96-well intermediate plate to a 384-well plate. For example, A1 of the 96-well plate was transferred to A1 and A2 of the 384-well plate. A2 of the 96-well plate was transferred to A3 and A4 of the 384-well plate, and so on.
(§9) 1) Prepared a 2.5× enzyme solution: added kinase into 1× kinase base buffer.
(§10) 2) Prepared a 2.5× peptide solution: added FAM-labeled peptide and ATP into the 1× kinase base buffer.
(§11) 3) Transferred the 2.5× enzyme solution to the assay plate: Assay plate already contained 5 μm of 10% DMSO and transferred 10 μm of 2.5× enzyme solution to each well.
(§12) 4) Incubated at room temperature for 10 min.
(§13) 5) Transferred the 2.5× peptide solution to the assay plate: added 10 μm of 2.5× peptide solution to each well of the 384-well assay plate.
(§14) 6) Kinase reaction and termination: incubated at 28° C. for a specified period and added 25 μm of stop buffer to stop the reaction.
(§15) 5. Caliper Reading: Collect Data on Caliper.
(§16) 1) Copied conversion data from Caliper program and Converted conversion values to inhibition values: Inhibition rate (%)=(1−OD value of the compound-OD value of the control well)/(OD value of the control empty-OD value of the control well)*100%.
(§17) 2) Fitted the data in XLFit excel add-in version 4.3.1 to give the corresponding IC50 values.

[2] = target: CDK6/cycD3 (Homo sapiens, UniProt Q00534); test: Determination of CDK activity (Caliper mobility shift, FAM-P8 peptide): CDK6; settings: CDK6/cycD3; read-out: CDK6 enzymatic inhibitory activity (IC50)
Method: as §1, §2, §3
(§18) 1) 1× Kinase Base Buffer (CDK1, 2, and 6).
as §4, §5, §6, §7, §8, §9, §10, §11, §12, §13, §14, §15, §16, §17

[3] = target: CDK1/CyclinB (Homo sapiens, UniProt P06493); test: Determination of CDK activity (Caliper mobility shift, FAM-P8 peptide): CDK1; settings: CDK1/CyclinB; read-out: CDK1 enzymatic inhibitory activity (IC50)
Method: as §1, §3, §18, §4, §5
(§19) 1) Transferred 5 μm of each compound from the 96-well intermediate plate to a 384-well plate. […] A2 of the 96-well plate was transferred to A3 and A4 of the 384-well plate, and so on.
as §9, §10, §11, §12, §13, §14, §15, §16, §17

[4] = target: CDK2/CycA2 (Homo sapiens, UniProt P24941); test: Determination of CDK activity (Caliper mobility shift, FAM-P8 peptide): CDK2; settings: CDK2/CycA2; read-out: CDK2 enzymatic inhibitory activity (IC50)
Method: as §1, §3, §18, §4, §5, §19, §9, §10, §11, §12, §13, §14, §15, §16, §17

[5] = target: CDK7/CyclinH/MAT1 (Homo sapiens, UniProt P50613); test: Determination of CDK activity (Caliper mobility shift, FAM-P8 peptide): CDK7; settings: CDK7/CyclinH/MAT1; read-out: CDK7 enzymatic inhibitory activity (IC50)
Method: as §1, §2, §3
(§20) 3) 1× Kinase Base Buffer (CDK7 and 9).
as §4, §5, §6, §7, §8, §9, §10, §11, §12, §13, §14, §15, §16, §17

[6] = target: CDK9/cyclinTl (Homo sapiens, UniProt P50750); test: Determination of CDK activity (Caliper mobility shift, FAM-P8 peptide): CDK9; settings: CDK9/cyclinTl; read-out: CDK9 enzymatic inhibitory activity (IC50)
Method: as §1, §3, §20, §4, §5, §19, §9, §10, §11, §12, §13, §14, §15, §16, §17

CDK9/cyclinTl, sequence (P50750 whole entry): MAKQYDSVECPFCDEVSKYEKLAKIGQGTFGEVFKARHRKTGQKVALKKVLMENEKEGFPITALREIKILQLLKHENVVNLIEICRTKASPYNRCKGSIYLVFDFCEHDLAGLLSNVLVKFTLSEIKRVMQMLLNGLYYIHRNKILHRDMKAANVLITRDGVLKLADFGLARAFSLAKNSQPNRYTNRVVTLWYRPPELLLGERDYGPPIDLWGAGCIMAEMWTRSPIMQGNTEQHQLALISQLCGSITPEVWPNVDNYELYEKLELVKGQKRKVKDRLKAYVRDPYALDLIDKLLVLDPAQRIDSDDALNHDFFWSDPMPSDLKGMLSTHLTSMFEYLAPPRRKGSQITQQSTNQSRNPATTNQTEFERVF
CDK9/cyclinTl, sequence (O60563 whole entry partner): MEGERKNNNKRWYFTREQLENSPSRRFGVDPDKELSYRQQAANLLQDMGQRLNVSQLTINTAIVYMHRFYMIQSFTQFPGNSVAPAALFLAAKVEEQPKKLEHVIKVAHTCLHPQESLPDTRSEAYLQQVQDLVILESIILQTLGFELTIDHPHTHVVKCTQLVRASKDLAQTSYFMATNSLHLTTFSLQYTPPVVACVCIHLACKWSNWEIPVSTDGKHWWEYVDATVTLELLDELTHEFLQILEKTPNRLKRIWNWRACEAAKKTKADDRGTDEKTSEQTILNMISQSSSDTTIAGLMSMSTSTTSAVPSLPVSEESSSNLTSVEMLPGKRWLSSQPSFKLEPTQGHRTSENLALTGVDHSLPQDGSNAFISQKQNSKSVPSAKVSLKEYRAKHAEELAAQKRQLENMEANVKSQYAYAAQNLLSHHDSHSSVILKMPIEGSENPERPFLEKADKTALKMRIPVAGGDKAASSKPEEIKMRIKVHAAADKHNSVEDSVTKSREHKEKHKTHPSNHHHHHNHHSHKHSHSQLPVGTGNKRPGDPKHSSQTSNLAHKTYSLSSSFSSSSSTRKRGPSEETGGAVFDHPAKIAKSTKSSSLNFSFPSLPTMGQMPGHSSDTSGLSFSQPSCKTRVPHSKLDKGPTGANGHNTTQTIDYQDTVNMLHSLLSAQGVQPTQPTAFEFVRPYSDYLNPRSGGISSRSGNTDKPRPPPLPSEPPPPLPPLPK
CDK6/cycD3, sequence (Q00534 whole entry): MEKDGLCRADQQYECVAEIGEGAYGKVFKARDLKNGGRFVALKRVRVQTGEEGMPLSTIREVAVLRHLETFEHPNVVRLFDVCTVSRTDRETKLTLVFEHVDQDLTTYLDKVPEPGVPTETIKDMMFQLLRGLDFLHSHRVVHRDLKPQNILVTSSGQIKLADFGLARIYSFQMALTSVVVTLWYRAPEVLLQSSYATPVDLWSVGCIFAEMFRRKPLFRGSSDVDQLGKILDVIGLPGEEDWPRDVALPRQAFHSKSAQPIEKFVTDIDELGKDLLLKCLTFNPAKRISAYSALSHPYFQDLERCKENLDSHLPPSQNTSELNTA
CDK6/cycD3, sequence (P30281 whole entry partner): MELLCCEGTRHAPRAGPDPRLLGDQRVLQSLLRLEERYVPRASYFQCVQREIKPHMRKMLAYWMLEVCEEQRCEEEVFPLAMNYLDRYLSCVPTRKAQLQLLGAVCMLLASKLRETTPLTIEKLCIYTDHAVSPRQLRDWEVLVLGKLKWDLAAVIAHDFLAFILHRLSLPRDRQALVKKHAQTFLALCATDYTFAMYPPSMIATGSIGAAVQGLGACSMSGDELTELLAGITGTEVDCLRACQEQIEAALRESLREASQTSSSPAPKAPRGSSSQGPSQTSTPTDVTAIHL
CDK1/CyclinB, sequence (P06493 whole entry): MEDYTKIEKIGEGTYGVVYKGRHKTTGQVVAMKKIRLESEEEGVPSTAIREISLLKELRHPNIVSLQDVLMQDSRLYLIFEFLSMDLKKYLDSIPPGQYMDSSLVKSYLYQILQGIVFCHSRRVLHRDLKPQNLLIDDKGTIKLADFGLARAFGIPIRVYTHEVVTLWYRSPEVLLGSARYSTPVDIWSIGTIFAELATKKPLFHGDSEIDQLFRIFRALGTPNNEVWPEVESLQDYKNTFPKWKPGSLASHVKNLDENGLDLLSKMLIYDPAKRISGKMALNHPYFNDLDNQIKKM
CDK1/CyclinB, sequence (P14635 whole entry partner): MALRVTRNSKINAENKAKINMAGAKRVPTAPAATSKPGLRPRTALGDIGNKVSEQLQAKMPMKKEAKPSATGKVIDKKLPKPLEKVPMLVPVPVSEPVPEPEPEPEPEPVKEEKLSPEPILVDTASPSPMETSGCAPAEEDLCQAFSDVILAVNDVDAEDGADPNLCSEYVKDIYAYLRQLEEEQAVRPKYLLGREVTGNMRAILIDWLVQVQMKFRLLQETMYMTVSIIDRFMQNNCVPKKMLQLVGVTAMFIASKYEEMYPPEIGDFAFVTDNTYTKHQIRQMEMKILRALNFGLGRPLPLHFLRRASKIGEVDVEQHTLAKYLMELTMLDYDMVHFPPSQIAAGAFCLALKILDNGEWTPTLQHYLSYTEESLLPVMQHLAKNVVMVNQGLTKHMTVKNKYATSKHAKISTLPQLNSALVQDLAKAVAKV
CDK7/CyclinH/MAT1, sequence (P50613 whole entry): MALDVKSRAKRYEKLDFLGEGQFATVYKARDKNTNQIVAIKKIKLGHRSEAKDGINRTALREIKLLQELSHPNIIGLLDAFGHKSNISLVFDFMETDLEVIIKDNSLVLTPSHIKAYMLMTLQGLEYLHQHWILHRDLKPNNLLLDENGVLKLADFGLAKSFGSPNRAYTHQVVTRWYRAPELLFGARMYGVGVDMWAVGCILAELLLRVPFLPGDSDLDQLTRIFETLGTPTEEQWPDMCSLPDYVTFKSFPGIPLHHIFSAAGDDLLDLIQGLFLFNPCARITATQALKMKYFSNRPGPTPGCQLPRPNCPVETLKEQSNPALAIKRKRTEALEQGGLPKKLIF
CDK7/CyclinH/MAT1, sequence (P51946 whole entry partner): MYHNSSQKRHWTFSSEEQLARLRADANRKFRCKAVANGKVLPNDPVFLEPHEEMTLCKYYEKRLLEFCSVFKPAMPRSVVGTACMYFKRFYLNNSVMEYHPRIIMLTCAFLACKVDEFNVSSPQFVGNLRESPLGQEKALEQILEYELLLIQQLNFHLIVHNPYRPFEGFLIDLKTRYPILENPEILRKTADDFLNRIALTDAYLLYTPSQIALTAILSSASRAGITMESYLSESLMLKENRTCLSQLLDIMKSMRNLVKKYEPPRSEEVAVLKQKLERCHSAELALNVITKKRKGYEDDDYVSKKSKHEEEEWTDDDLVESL
CDK7/CyclinH/MAT1, sequence (P51948 whole entry partner): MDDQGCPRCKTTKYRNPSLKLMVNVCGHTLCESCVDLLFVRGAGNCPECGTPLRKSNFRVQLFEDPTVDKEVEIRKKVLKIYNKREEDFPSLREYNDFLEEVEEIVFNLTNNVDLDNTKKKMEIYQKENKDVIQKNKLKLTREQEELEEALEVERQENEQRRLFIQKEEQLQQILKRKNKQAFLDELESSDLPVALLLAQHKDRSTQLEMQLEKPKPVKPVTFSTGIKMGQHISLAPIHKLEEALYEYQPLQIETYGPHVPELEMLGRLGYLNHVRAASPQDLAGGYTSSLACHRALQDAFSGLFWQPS
CDK4/CycD3, sequence (P11802 whole entry): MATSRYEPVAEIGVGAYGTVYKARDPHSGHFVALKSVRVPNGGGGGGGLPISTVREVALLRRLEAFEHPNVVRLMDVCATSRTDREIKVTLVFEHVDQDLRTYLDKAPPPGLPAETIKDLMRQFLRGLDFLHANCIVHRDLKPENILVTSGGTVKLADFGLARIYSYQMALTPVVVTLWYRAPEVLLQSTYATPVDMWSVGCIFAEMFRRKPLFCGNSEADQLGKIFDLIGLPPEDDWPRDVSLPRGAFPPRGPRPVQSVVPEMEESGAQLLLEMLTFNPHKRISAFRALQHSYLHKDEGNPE
CDK4/CycD3, sequence (P30281 whole entry partner): as the sequence (P30281 whole entry partner) above

Row | IC50 [1] | IC50 [2] | IC50 [3] | IC50 [4] | IC50 [5] | IC50 [6] | SMILES
1 | < 0.1 µM | < 0.1 µM | 0.1 to 0.5 µM | < 0.1 µM | 1 to 10 µM | 0.1 to 0.5 µM | Cc1nc2c(F)cc(-c3nc(Nc4ccc(C=C5CCN(CC(F)(F)F)CC5)cn4)ncc3F)cc2n1C(C)C [Example 70]
2 | < 0.1 µM | 0.1 to 0.5 µM | 0.5 to 1 µM | 0.1 to 0.5 µM | 1 to 10 µM | 0.5 to 1 µM | CCN1CCC(C(C)c2ccc(Nc3ncc(F)c(-c4cc(F)c5nc(C)n(C(C)C)c5c4)n3)nc2)CC1 (single isomer, unassigned) [Example 18, (R or S)—N-(5-(1-(1-ethylpiperidin-4-yl)ethyl)pyridin-2-yl)-5-fluoro-4-(4-fluoro-1-isopropyl-2-methyl-1H-benzo[d]imidazol-6-yl) pyrimidin-2-amine]
3 | 0.1 to 0.5 µM | 0.1 to 0.5 µM | 0.5 to 1 µM | 0.1 to 0.5 µM | 1 to 10 µM | 0.5 to 1 µM | CC[C@@H](c1ccc(Nc2ncc(F)c(-c3cc(F)c4nc(C)n(C(C)C)c4c3)n2)nc1)C1CCN(CC)CC1 [Example 25]
4 | < 0.1 µM | 0.1 to 0.5 µM | 0.5 to 1 µM | 0.1 to 0.5 µM | 1 to 10 µM | 0.5 to 1 µM | Cc1nc2c(F)cc(-c3nc(Nc4ccc([C@@H](C)C5CCN(C)CC5)cn4)ncc3F)cc2n1C(C)C (single isomer, unassigned) [Example 22]
5 | 0.1 to 0.5 µM | 0.1 to 0.5 µM | 0.5 to 1 µM | 0.5 to 1 µM | 1 to 10 µM | 0.5 to 1 µM | CC[C@H](c1ccc(Nc2ncc(F)c(-c3cc(F)c4nc(C)n(C(C)C)c4c3)n2)nc1)C1CCN(CC)CC1 [Example 26]
6 | < 0.1 µM | < 0.1 µM | 0.1 to 0.5 µM | < 0.1 µM | 1 to 10 µM | 0.1 to 0.5 µM | Cc1nc2c(F)cc(-c3nc(Nc4ccc(C=C5CCN(CC(F)F)CC5)cn4)ncc3F)cc2n1C(C)C [Example 69]
7 | < 0.1 µM | < 0.1 µM | 0.1 to 0.5 µM | < 0.1 µM | 0.5 to 1 µM | 0.1 to 0.5 µM | CCN1CCC(C(O)c2ccc(Nc3ncc(F)c(-c4cc(F)c5nc(C)n(C(C)C)c5c4)n3)nc2)CC1 (single isomer, unassigned) [Example 41, (R or S)-(1-ethylpiperidin-4-yl)(6-((5-fluoro-4-(4-fluoro-1-isopropyl-2-methyl-1H-benzo [d]imidazol-6-yl)pyrimidin-2-yl)amino)pyridin-3-yl) methanol]

Further lines, the compound ahead of its results:

Row | SMILES | IC50 [1] | IC50 [2] | IC50 [3] | IC50 [4] | IC50 [5] | IC50 [6]
8 | C=C(c1ccc(Nc2ncc(F)c(-c3cc(F)c4nc(C)n(C(C)C)c4c3)n2)nc1)C1CCN(C)CC1 [Example 35] | < 0.1 µM | 0.1 to 0.5 µM | 0.1 to 0.5 µM | < 0.1 µM | 1 to 10 µM | < 0.1 µM
9 | CC[C@H](c1ccc(Nc2ncc(F)c(-c3cc(F)c4nc(C)n(C(C)C)c4c3)n2)nc1)N1CCNCC1 [Example 5] | < 0.1 µM | 1 to 10 µM | 10 to 100 µM | 10 to 100 µM | 1 to 10 µM | 10 to 100 µM
10 | Cc1nc2c(F)cc(-c3nc(Nc4ccc(C=C5CCN(C(C)C)CC5)cn4)ncc3F)cc2n1C(C)C [Example 64] | < 0.1 µM | 0.1 to 0.5 µM | 1 to 10 µM | 0.1 to 0.5 µM | 10 to 100 µM | 0.1 to 0.5 µM
11 | Cc1nc2c(F)cc(-c3nc(Nc4ccc(C=C5CCN(CCO)CC5)cn4)ncc3F)cc2n1C(C)C [Example 67] | < 0.1 µM | < 0.1 µM | 0.1 to 0.5 µM | < 0.1 µM | 1 to 10 µM | 0.1 to 0.5 µM
12 | Cc1nc2c(F)cc(-c3nc(Nc4ccc(C=C5CCNCC5)cn4)ncc3F)cc2n1C(C)C [Example 59] | < 0.1 µM | 0.5 to 1 µM | 0.5 to 1 µM | 0.1 to 0.5 µM | 1 to 10 µM | 0.1 to 0.5 µM
13 | CCC(c1ccc(Nc2ncc(F)c(-c3cc(F)c4nc(C)n(C(C)C)c4c3)n2)nc1)N1CCN(CC)CC1 (single isomer, unassigned) [Example 2, (R or S)—N-(5-(1-(4-ethylpiperazin-1-yl)propyl)pyridin-2-yl)-5-fluoro-4-(4-fluoro-1-isopropyl-2-methyl-1H-benzo[d]imidazol-6-yl) pyrimidin-2-amine] | < 0.1 µM | 0.1 to 0.5 µM | 10 to 100 µM | 1 to 10 µM | 1 to 10 µM | 1 to 10 µM
14 | Cc1nc2c(F)cc(-c3nc(Nc4ccc([C@H](C)C5CCN(C(C)C)CC5)cn4)ncc3F)cc2n1C(C)C (single isomer, unassigned) [Example 73] | < 0.1 µM | < 0.1 µM | 0.1 to 0.5 µM | < 0.1 µM | 1 to 10 µM | 0.5 to 1 µM
15 | COCCN1CCC([C@@H](C)c2ccc(Nc3ncc(F)c(-c4cc(F)c5nc(C)n(C(C)C)c5c4)n3)nc2)CC1 (single isomer, unassigned) [Example 79] | < 0.1 µM | < 0.1 µM | 0.1 to 0.5 µM | < 0.1 µM | 1 to 10 µM | 0.1 to 0.5 µM
16 | Cc1nc2c(F)cc(-c3nc(Nc4ccc([C@@H](C)C5CCN(C(C)C)CC5)cn4)ncc3F)cc2n1C(C)C (single isomer, unassigned) [Example 74] | < 0.1 µM | 0.1 to 0.5 µM | 0.5 to 1 µM | 0.1 to 0.5 µM | 1 to 10 µM | 0.1 to 0.5 µM
17 | CCN1CCC(C(OC(C)=O)c2ccc(Nc3ncc(F)c(-c4cc(F)c5nc(C)n(C(C)C)c5c4)n3)nc2)CC1 (single isomer, unassigned) [Example 71, (R or S)-(1-ethylpiperidin-4-yl) (6-((5-fluoro-4-(4-fluoro-1-isopropyl-2-methyl-1H-benzo[d]imidazol-6-yl)pyrimidin-2-yl)amino)pyridin-3-yl) methyl acetate] | < 0.1 µM | < 0.1 µM | 0.1 to 0.5 µM | < 0.1 µM | 1 to 10 µM | 0.1 to 0.5 µM
18 | CCN1CCC(=C(C)c2ccc(Nc3ncc(F)c(-c4cc(F)c5nc(C)n(C(C)C)c5c4)n3)nc2)CC1 [Example 58, N-(5-(1-(1-ethylpiperidin-4-ylidene)ethyl)pyridin-2-yl)-5-fluoro-4-(4-fluoro-1-isopropyl-2-methyl-1H-benzo[d]imidazol-6-yl)pyrimidin-2-amine] | < 0.1 µM | 0.1 to 0.5 µM | 0.5 to 1 µM | 0.1 to 0.5 µM | 1 to 10 µM | 0.1 to 0.5 µM
